The results in this text go back to patent publication US20140088103A1, “(FUSED RING ARYLAMINO AND HETEROCYCLYLAMINO) PYRIMIDINYL AND 1,3,5-TRIAZINYL BENZIMIDAZOLES, PHARMACEUTICAL COMPOSITIONS THEREOF, AND THEIR USE IN TREATING PROLIFERATIVE DISEASES” (MEI PHARMA, INC., priority 2011, published 2014).

Assay [1] has as its target T1, PI3K delta (p110δ) (Homo sapiens, UniProt O00329).
T1 construct: purchased Millipore, Billerica, Mass., USA
The assay is described as follows: Luciferase-based luminescence assay (Kinase GLO), PI3K delta. The following applies: for IC50: 6.86 nM enzyme, 50 μM PIP2, 25 μM ATP, 2 hours reaction; for α/δ ratio: ratio of IC50 against PI3Kα over IC50 against PI3Kδ. Format: biochemical. The method, then: (§1) PI3K catalyzes the conversion of phosphatidylinositol-4,5-bisphosphate (PIP2) and ATP to phosphatidylinositol-3,4,5-trisphosphate (PIP3) and ADP. PI3K enzymatic activity was determined by measuring the amount of ATP consumed following the kinase reaction using a luciferase-based luminescence assay (Kinase GLO®, Promega Corp., Madison, Wis., USA) in a reaction buffer. The reaction buffer contained 50 mM HEPES, pH 7.5, 3 mM MgCl2, 1 mM EGTA, 100 mM NaCl, 0.03% CHAPS, and 2 mM DTT. Compounds for testing were dissolved and serially diluted in 100% DMSO (total of 10 concentrations), and then diluted 1:25 in the reaction buffer. PI3K enzyme solutions were prepared by diluting PI3K alpha (Invitrogen Corp., Carlsbad, Calif., USA) or PI3K delta (Millipore, Billerica, Mass., USA) in the reaction buffer to 4× the final assay concentration. The final concentrations of enzymes were 1.65 nM and 6.86 nM for PI3K alpha and PI3K delta, respectively. A substrate solution was prepared by mixing PIP2 and ATP in reaction buffer at 2× the final assay concentration. The final concentrations were 50 μM and 25 μM for PIP2 and ATP, respectively. To individual wells of white low volume 384-well assay plates were added 2.5 μl each of the compound and kinase mixtures, followed by shaking. The reactions were started by adding 5 μl of substrate mixture per well and shaking. The assay plates were covered and reactions were allowed to proceed for 1 hour (PI3K alpha) or 2 hours (PI3K delta), after which 10 μl of Kinase GLO® reagent was added. The plates were briefly centrifuged and incubated for 10 minutes, after which luminescence was measured using a FlexStation plate reader (Molecular Devices, Sunnyvale, Calif., USA). IC50 values were determined by curve fitting using Graphpad Prism software (Graphpad Software, La Jolla, Calif., USA).
A general note: Kinase-Glo measures the ATP left after a reaction by luminescence.

Assay [2] concerns the target T2, PI3K alpha (p110α) (Homo sapiens, UniProt P42336).
T2 construct: purchased Invitrogen Corp., Carlsbad, Calif., USA
The experiment in a line: Luciferase-based luminescence assay (Kinase GLO), PI3K alpha. The class given is biochemical. Particulars: 1.65 nM enzyme, 50 μM PIP2, 25 μM ATP, 1 hour reaction. The method, then: as §1

For orientation: IC50 means the point on the concentration scale where inhibition reaches its midpoint. A high value points to lower potency.

T2 sequence (P42336 whole entry): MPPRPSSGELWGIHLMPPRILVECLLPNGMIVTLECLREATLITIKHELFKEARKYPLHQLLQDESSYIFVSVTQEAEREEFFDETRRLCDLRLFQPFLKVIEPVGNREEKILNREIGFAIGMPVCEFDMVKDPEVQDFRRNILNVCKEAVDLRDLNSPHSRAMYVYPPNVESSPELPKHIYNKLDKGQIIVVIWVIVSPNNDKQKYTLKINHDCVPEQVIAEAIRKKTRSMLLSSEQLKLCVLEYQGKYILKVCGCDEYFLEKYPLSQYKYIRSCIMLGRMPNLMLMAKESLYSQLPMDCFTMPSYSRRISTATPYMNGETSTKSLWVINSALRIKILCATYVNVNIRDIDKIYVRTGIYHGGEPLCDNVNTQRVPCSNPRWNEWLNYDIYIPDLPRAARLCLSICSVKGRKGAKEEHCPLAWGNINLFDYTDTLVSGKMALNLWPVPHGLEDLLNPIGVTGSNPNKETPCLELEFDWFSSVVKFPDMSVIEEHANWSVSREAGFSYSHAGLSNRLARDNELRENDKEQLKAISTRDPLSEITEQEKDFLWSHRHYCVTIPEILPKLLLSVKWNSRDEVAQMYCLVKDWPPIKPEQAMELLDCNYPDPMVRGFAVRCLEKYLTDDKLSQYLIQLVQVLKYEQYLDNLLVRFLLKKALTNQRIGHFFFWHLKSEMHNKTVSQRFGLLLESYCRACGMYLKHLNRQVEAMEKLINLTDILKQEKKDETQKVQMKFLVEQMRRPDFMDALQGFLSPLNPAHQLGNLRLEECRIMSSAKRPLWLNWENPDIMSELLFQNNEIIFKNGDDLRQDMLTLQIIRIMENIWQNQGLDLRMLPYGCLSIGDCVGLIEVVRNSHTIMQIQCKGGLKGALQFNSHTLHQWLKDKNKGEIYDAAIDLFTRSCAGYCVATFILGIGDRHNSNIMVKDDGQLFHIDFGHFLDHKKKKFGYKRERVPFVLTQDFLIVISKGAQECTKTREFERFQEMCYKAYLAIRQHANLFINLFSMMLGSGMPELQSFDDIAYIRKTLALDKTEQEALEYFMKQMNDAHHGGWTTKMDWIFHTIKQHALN
T2 sequence (P27986 whole entry partner): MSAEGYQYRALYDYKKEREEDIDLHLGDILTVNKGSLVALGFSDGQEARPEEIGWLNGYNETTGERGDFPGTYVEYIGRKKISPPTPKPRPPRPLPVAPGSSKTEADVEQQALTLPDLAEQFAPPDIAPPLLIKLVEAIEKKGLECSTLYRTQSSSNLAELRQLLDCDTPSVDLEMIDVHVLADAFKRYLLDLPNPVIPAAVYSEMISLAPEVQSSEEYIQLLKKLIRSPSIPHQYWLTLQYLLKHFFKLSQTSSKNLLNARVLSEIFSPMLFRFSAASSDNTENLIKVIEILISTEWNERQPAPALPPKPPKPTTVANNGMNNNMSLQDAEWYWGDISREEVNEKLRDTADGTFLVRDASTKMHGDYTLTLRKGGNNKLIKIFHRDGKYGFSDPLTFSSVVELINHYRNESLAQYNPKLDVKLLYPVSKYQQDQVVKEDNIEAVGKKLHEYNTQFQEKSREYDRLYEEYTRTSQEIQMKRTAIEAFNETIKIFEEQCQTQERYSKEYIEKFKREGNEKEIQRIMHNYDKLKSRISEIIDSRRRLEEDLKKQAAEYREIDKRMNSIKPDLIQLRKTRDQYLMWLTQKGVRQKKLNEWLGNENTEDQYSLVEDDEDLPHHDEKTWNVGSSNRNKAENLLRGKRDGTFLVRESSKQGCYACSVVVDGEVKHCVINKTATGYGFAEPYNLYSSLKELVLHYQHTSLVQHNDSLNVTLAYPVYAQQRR
T1 sequence (O00329 whole entry): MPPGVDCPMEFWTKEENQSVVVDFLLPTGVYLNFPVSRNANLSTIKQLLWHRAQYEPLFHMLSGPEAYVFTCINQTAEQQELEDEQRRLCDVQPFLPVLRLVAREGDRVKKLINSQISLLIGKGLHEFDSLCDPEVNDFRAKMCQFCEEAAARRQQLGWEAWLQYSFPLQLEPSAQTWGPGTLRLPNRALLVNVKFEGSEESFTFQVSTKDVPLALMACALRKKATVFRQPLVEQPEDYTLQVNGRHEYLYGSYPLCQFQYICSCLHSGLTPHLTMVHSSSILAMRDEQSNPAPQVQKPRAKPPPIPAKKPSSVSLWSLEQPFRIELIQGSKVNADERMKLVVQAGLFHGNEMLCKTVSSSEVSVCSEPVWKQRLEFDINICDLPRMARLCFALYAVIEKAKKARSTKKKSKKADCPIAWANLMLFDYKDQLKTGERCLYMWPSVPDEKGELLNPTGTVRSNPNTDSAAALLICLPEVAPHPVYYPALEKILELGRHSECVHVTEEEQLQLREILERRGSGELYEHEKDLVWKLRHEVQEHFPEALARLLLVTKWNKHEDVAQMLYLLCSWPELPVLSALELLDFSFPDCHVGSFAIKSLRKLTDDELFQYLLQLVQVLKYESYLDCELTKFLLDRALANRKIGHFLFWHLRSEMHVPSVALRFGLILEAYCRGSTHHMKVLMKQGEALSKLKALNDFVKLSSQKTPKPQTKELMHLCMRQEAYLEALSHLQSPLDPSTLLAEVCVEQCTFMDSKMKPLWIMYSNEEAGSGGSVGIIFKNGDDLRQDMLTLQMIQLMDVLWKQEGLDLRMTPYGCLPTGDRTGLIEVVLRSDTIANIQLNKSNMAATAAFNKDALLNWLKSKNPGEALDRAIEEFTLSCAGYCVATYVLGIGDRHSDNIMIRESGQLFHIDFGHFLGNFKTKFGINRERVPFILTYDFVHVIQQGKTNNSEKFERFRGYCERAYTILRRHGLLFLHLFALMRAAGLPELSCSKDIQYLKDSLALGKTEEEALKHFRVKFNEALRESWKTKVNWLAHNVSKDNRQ
T1 sequence (P27986 whole entry partner): as the sequence (P27986 whole entry partner) above

In the case of `FC(F)c1nc2ccccc2n1-c1nc(N[C@H]2CCc3ccccc32)nc(N2CCOCC2)n1` [Compound A5, (S)-4-(2-(difluoromethyl)-1H-benzo[d]imidazol-1-yl)-N-(2,3-dihydro-1H-inden-1-yl)-6-morpholino-1,3,5-triazin-2-amine], in assay [1], the IC50 is 100 to 200 nM and the α/δ ratio result is “A′ (A′ represents a ratio of greater than 8)”. The same compound yielded a concentration for half-maximal inhibition (IC50) in assay [2] of more than 500 nM.

For `FC(F)c1nc2ccccc2n1-c1nc(N[C@@H]2CCCc3ccccc32)nc(N2CCOCC2)n1` [Compound A3, (R)-4-(2-(difluoromethyl)-1H-benzo[d]imidazol-1-yl)-6-morpholino-N-(1,2,3,4-tetrahydronaphthalen-1-yl)-1,3,5-triazin-2-amine], the IC50 in assay [1] and in assay [2] was more than 500 nM throughout. Also, the α/δ ratio entry in assay [1] was “B′ (B′ represents a ratio of no less than 4 but no greater than 8)”.

Turning to `FC(F)c1nc2ccccc2n1-c1nc(NC2CCc3ccc(Cl)cc32)nc(N2CCOCC2)n1` (stereo not drawn) [Compound A8, N-(6-chloro-2,3-dihydro-1H-inden-1-yl)-4-(2-(difluoromethyl)-1H-benzo[d]imidazol-1-yl)-6-morpholino-1,3,5-triazin-2-amine], in assay [1], the IC50 was in the range of 200 to 500 nM and the α/δ ratio result is “A′ (A′ represents a ratio of greater than 8)”. This compound returned an IC50 in assay [2] of more than 500 nM.

Turning to `COc1ccc2c(c1)CCC2Nc1nc(N2CCOCC2)nc(-n2c(C(F)F)nc3ccccc32)n1` (stereo not drawn) [Compound A9, 4-(2-(difluoromethyl)-1H-benzo[d]imidazol-1-yl)-N-(5-methoxy-2,3-dihydro-1H-inden-1-yl)-6-morpholino-1,3,5-triazin-2-amine], in assay [1], the IC50 lay in the range of 200 to 500 nM and the α/δ ratio entry is “C′ (C′ represents a ratio of greater than 2 but less than 4)”. Also, the IC50 in assay [2] is more than 500 nM.

As for `COc1ccc2c(c1)C(Nc1nc(N3CCOCC3)nc(-n3c(C(F)F)nc4ccccc43)n1)CC2` (stereo not drawn) [Compound A10, 4-(2-(difluoromethyl)-1H-benzo[d]imidazol-1-yl)-N-(6-methoxy-2,3-dihydro-1H-inden-1-yl)-6-morpholino-1,3,5-triazin-2-amine], in assay [1], the IC50 fell in the range of 200 to 500 nM and the α/δ ratio entry was “C′ (C′ represents a ratio of greater than 2 but less than 4)”. Besides, the half-inhibitory concentration (IC50) in assay [2] is more than 500 nM.

Take `FC(F)c1nc2ccccc2n1-c1nc(NCc2ccccc2)nc(N2CCOCC2)n1` [Ref. 1, N-benzyl-4-(2-(difluoromethyl)-1H-benzo[d]imidazol-1-yl)-6-morpholino-1,3,5-triazin-2-amine, reference compound]: in assay [1], the IC50 was in the range of 100 to 200 nM and the α/δ ratio entry was “D′ (D′ represents a ratio of no greater than 2)”. The IC50 in assay [2] was in the range of 100 to 200 nM.

Consider `FC(F)c1nc2ccccc2n1-c1nc(NC2CCCc3ccccc32)nc(N2CCOCC2)n1` (stereo not drawn) [Compound A1, 4-(2-(difluoromethyl)-1H-benzo[d]imidazol-1-yl)-6-morpholino-N-(1,2,3,4-tetrahydronaphthalen-1-yl)-1,3,5-triazin-2-amine], for which, in assay [1], the IC50 was 100 to 200 nM and the α/δ ratio entry is “A′ (A′ represents a ratio of greater than 8)”. The same compound registered an IC50 in assay [2] of more than 500 nM.

As for `FC(F)c1nc2ccccc2n1-c1nc(N[C@@H]2CCc3ccccc32)nc(N2CCOCC2)n1` [Compound A6, (R)-4-(2-(difluoromethyl)-1H-benzo[d]imidazol-1-yl)-N-(2,3-dihydro-1H-inden-1-yl)-6-morpholino-1,3,5-triazin-2-amine], in assay [1], the IC50 lay in the range of 200 to 500 nM and the α/δ ratio result is “C′ (C′ represents a ratio of greater than 2 but less than 4)”. Moreover, in assay [2], the IC50 was more than 500 nM.

`FC(F)c1nc2ccccc2n1-c1nc(NC2CCc3ccccc32)nc(N2CCOCC2)n1` (stereo not drawn) [Compound A4, 4-(2-(difluoromethyl)-1H-benzo[d]imidazol-1-yl)-N-(2,3-dihydro-1H-inden-1-yl)-6-morpholino-1,3,5-triazin-2-amine]: in assay [1], the IC50 was not above 100 nM and the α/δ ratio result is given as “A′ (A′ represents a ratio of greater than 8)”. In addition, the IC50 in assay [2] was more than 500 nM.

For `FC(F)c1nc2ccccc2n1-c1nc(NC2CCc3cc(Cl)ccc32)nc(N2CCOCC2)n1` (stereo not drawn) [Compound A7, N-(5-chloro-2,3-dihydro-1H-inden-1-yl)-4-(2-(difluoromethyl)-1H-benzo[d]imidazol-1-yl)-6-morpholino-1,3,5-triazin-2-amine], the concentration for half-maximal inhibition (IC50) in assay [1] and in assay [2] was more than 500 nM in each case. Also, the α/δ ratio result in assay [1] was “A′ (A′ represents a ratio of greater than 8)”.

As to `FC(F)c1nc2ccccc2n1-c1nc(N[C@H]2CCCc3ccccc32)nc(N2CCOCC2)n1` [Compound A2, (S)-4-(2-(difluoromethyl)-1H-benzo[d]imidazol-1-yl)-6-morpholino-N-(1,2,3,4-tetrahydronaphthalen-1-yl)-1,3,5-triazin-2-amine], in assay [1], the IC50 is not above 100 nM and the α/δ ratio entry is given as “A′ (A′ represents a ratio of greater than 8)”. Also, the IC50 in assay [2] is more than 500 nM.
